Article PMC7160673, “A Degenerate Peptide Library Approach to Reveal Sequence Determinants of Methyllysine-Driven Protein Interactions” (Frontiers in Cell and Developmental Biology, 2020)

How the values were obtained:
Type in all cases: binding
[1] = tested on: 53BP1 TTD; test: Histone peptide microarray, 53BP1 TTD; conditions: 53BP1 TTD hits, average signal per peptide
Outline: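 Printed histone peptide microarrays probed in 25 mM HEPES pH 7.5, 100 mM NaCl, 0.5% BSA, 0.1% NP-40, with 3 × 5 min PBS/0.1% Tween-20 washes between steps. GST-tagged protein detected via anti-GST (1:2,000) then AlexaFluor 647 secondary (1:5,000).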

[2] = tested on: Millipore #07-449, anti-H3K27me3; test: Histone peptide microarray, Millipore 07-449; conditions: Millipore 07-449 (anti-H3K27me3) hits, average signal per peptide
[3] = tested on: CST 9733 (anti-H3K27me3); test: Histone peptide microarray, CST 9733; conditions: histone peptide array signal normalized to the highest peptide average per subarray, hits; CST 9733 LOT:14 dilution 1:5,000
[4] = tested on: ABClonal #A2355, anti-H3K4me1; test: Histone peptide microarray, ABclonal A2355; conditions: Abclonal A2355 (anti-H3K4me1) hits
Method: (§1) Peptide microarrays were fabricated using an Aushon 2470 microarrayer and used as described ([Cornett et al., 2017]) with the following modifications. Protein and antibody hybridization steps were performed in buffer containing 25 mM HEPES pH 7.5, 100 mM NaCl, 0.5% BSA (w/v), and 0.1% NP-40. Slides were washed 3 × 5 min in PBS supplemented with 0.1% Tween-20 between each hybridization step. Antibodies used were primary anti-GST (Sigma #7781, 1:2,000 dilution) and an AlexaFluor 647-labeled secondary antibody (Life Technologies A-21245, 1:5,000 dilution). […] Full lists of peptides queried by array analysis are in Supplementary Table S2.

[5] = tested on: Active Motif #39161, anti-H3K9me3; test: Histone peptide microarray, Active Motif 39161; conditions: Active Motif 39161 (anti-H3K9me3) hits
[6] = tested on: Abcam #ab8895, anti-H3K4me1; test: Histone peptide microarray, Abcam ab8895; conditions: Abcam ab8895 (anti-H3K4me1) hits, average signal per peptide
[7] = target: T1, MPP8 chromo (Homo sapiens, UniProt Q99549); test: Histone peptide microarray, MPP8 chromo; conditions: normalized histone peptide array signal, hits; hybridization with 1 M MPP8 chromo (so in the source); two subarrays
T1 construct: 50-118; made in house; host or cells: E. coli BL21
T1 sequence (Q99549 50-118): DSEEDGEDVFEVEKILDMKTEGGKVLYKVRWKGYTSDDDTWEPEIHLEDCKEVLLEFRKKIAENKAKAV
Method: as §1

[8] = target: T2, CDYL2 chromo (Homo sapiens, UniProt Q8N8U2); test: Histone peptide microarray, CDYL2 chromo; conditions: normalized histone peptide array signal, hits; hybridization with 1 M CDYL2 chromo (so in the source); two subarrays
T2 construct: 1-75; made in house; host or cells: E. coli BL21
T2 sequence (Q8N8U2 1-75): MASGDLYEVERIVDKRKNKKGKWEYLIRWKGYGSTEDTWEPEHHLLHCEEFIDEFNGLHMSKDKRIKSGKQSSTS
Method: as §1

Avg Signal [7] | Avg Signal [8] | Substance | Avg Signal [1] | Avg Signal [2] | Avg Signal [3] | Avg Signal [4] | Avg Signal [5] | Avg Signal [6]
– | – | ACitTK(Me3)QTARK(Ac)STGGK(Ac)APRK(Ac)QL-K(Biot)-NH2 [H3.1Cit2K4me3K9acK14acK18ac] | 0.1358 | 0.0318 | 0.00661 | 0.0002223 | 0.03654 | –
– | – | ARTK(Me3)QTARK(Ac)pSTGGK(Ac)APRK(Ac)QL-K(Biot)-NH2 [H3.1K4me3K9acS10pK14acK18ac] | 0.1468 | 0.01919 | 0.002027 | 0.02489 | 0.01388 | –
– | – | AR(Me2s)TK(Me2)QTARKSTGGKAPRKQL-K(Biot)-NH2 [H3.1R2me2sK4me2] | 0.2755 | – | 0.003211 | 0.3527 | – | 0.2778
– | – | ARTK(Me2)QpTARK(Ac)STGGK(Ac)APRK(Ac)QL-K(Biot)-NH2 [H3.1K4me2T6pK9acK14acK18ac] | 0.3467 | – | 0.0006457 | 0.3869 | – | 0.2093
0.8021 | 0.3995 | ARTK(Me3)QTAR(Me2a)K(Me3)STGGKAPRKQL-K(Biot)-NH2 [H3.1K4me3R8me2aK9me3] | – | 0.06329 | 0.01316 | – | 0.5927 | –
– | – | ARTK(Me3)QTARKSTGGKAPRK(Ac)QL-K(Biot)-NH2 [H3.1K4me3K18ac] | 0.08895 | 0.03479 | 0.006885 | 0.001684 | 0.09175 | 0.01446
– | – | AR(Me2a)TK(Me3)QTARK(Ac)STGGK(Ac)APRK(Ac)QL-K(Biot)-NH2 [H3.1R2me2aK4me3K9acK14acK18ac] | 0.02297 | 0.02578 | 0.007631 | 0.01872 | 0.01091 | 0.04451
– | 0.04723 | AGGK(Ac)AGK(Ac)DSGK(Ac)AKAKAVSR-Peg-Biot [H2A.Z.2K4acK7acK11ac] | – | 0.003296 | – | – | 0.02451 | –
– | – | AR(Me)TK(Me2)QTARKSTGGKAPRKQL-K(Biot)-NH2 [H3.1R2me1K4me2] | 0.4867 | – | 0.0008431 | 0.4048 | 0.0007938 | 0.2976
0.1744 | – | ARTKQTAR(Me2s)K(Me)STGGKAPRKQL-K(Biot)-NH2 [H3.1R8me2sK9me1] | 0.2791 | – | 0.01277 | – | 0.003577 | 0.3635
0.07994 | – | ARTAQTARK(Me2)STGGKA-Peg-Biot [Peptide H3.1K4AK9me2] | – | – | – | – | 0.007885 | –
0.4905 | – | ARTKQTARK(Me)STGGKAPRKQL-K(Biot)-NH2 [Peptide H3.1K9me1] | 0.2555 | 0.001651 | – | – | 0.000221 | 0.4772
– | – | Ac-pSGR(Me2a)GK(Ac)QGGKARAKAKTR-Peg-Biot [H2AS1pR3me2aK5ac] | 0.1102 | – | 0.0004026 | 0.05587 | 0.0003455 | 0.08644
– | – | Ac-SGRGKGGKGLGK(Me)GGAKRHRKVLR-Peg-Biot [Peptide H4K12me1] | – | 0.0009635 | 0.0001351 | 0.01394 | 0.001118 | 0.009402
0.09452 | – | Ac-APRKQLATK(Me3)AARKSAPATGG-Peg-K(Biot)-NH2 [Peptide H3.1K23me3] | – | 0.005165 | 5.2822e-5 | – | 0.01355 | –
– | – | ACitTK(Me2)QTARKSTGGKAPRKQL-K(Biot)-NH2 [H3.1Cit2K4me2] | 0.6324 | 0.002853 | 0.0001108 | 0.3053 | 2.176e-5 | 0.2048
0.6556 | 0.363 | ARTK(Ac)QTARK(Me3)STGGKAPRKQL-K(Biot)-NH2 [H3.1K4acK9me3] | – | 0.01932 | 0.00836 | – | 0.7317 | –
0.2405 | – | ARTK(Ac)QTARK(Me2)STGGK(Ac)APRK(Ac)QL-K(Biot)-NH2 [H3.1K4acK9me2K14acK18ac] | 0.5858 | 0.005667 | 3.787e-5 | – | – | 0.0002166
– | – | ARTK(Me2)QpTARKSTGGKAPRKQL-K(Biot)-NH2 [Peptide H3.1K4me2T6p] | 0.2267 | – | 0.0001379 | 0.3499 | 0.000965 | 0.1917
0.4258 | – | ARTKQTAR(Me2a)K(Me)STGGKAPRKQL-K(Biot)-NH2 [H3.1R8me2aK9me1] | 0.1501 | – | – | 0.006716 | 0.00542 | 0.513
0.04961 | – | ARTKQTARK(Me3)pSTGGKAPRKQL-K(Biot)-NH2 [H3.1K9me3S10p] | 0.1329 | 0.03312 | – | – | 0.1411 | 0.1409
– | 0.1275 | Ac-APRKQLATKAARK(Me3)SAPSTGG-Peg-Biot [Peptide H3.3K27me3] | 0.04567 | 0.2205 | 1 | – | 0.01689 | –
0.009322 | – | Ac-SGRGK(Me)GGK(Ac)GLGK(Me)GGAKRHRKVLR-Peg-Biot [H4K5me1K8acK12me1] | – | 0.001936 | – | 0.01549 | 0.03017 | 0.02853
0.7317 | 0.2996 | ARTKQTARK(Me2)STGGKAPRKQL-K(Biot)-NH2 [H3.1K9me2 H3.1(1-20)] | – | – | 0.0005298 | – | – | –
– | 0.4707 | Ac-SGRGK(Me)GGK(Me)GLGK(Me)GGAKRHRKVLR-Peg-Biot [H4K5me1K8me1K12me1] | – | – | – | 0.1176 | 0.004623 | 0.06188
– | – | Ac-GKGGAKRHRK(Me2)VLRDNIQ-Peg-Biot [Peptide H4K20me2] | 1 | – | 0.000354 | 0.04168 | 0.01321 | 0.06608
– | 0.08888 | Ac-APRKQLATKAARK(Me2)SAPSTGG-Peg-Biot [Peptide H3.3K27me2] | 0.3374 | 0.003304 | 0.0115 | – | – | 0.0005313
0.07749 | – | ARTK(Ac)QTARK(Me)STGGK(Ac)APRK(Ac)QL-K(Biot)-NH2 [H3.1K4acK9me1K14acK18ac] | 0.1278 | 0.004673 | – | – | – | 0.5059
– | 0.04591 | Ac-SGRGKGGKGLGKGGAK(Ac)RHRK(Ac)VLR-Peg-Biot [Peptide H4K16acK20ac] | – | 0.001622 | – | 0.000726 | 0.03564 | 0.002797
